From ChEMBL document CHEMBL1201862, “PubChem BioAssay data set” (2004)
The source made the active and inactive calls.

Experiments:
[1] = molecular target: Metabotropic glutamate receptor 3 (Rattus norvegicus, UniProt P31422); test: mGlu3 negative allosteric modulator potency, dose response, HEK/GIRK cells, thallium flux, rat (AID 651839); type: functional
[2] = molecular target: Tyrosyl-DNA phosphodiesterase 2 (Homo sapiens, UniProt O95551); test: human TDP2 enzyme inhibitors, dose response, biochemical, epi absorbance, IC50 (AID 743297)
[3] = molecular target: T1, Protein RecA (Mycobacterium tuberculosis, UniProt P9WHJ3); test: Fluorescence Cell-Free Homogeneous Dose Retest to Identify Inhibitors of RecA-Intein Splicing Activity. [Related pubchem assays (depositor defined):AID2097, AID2223, AID489010, AID492950]; type: functional
T1 sequence (P9WHJ3 whole entry): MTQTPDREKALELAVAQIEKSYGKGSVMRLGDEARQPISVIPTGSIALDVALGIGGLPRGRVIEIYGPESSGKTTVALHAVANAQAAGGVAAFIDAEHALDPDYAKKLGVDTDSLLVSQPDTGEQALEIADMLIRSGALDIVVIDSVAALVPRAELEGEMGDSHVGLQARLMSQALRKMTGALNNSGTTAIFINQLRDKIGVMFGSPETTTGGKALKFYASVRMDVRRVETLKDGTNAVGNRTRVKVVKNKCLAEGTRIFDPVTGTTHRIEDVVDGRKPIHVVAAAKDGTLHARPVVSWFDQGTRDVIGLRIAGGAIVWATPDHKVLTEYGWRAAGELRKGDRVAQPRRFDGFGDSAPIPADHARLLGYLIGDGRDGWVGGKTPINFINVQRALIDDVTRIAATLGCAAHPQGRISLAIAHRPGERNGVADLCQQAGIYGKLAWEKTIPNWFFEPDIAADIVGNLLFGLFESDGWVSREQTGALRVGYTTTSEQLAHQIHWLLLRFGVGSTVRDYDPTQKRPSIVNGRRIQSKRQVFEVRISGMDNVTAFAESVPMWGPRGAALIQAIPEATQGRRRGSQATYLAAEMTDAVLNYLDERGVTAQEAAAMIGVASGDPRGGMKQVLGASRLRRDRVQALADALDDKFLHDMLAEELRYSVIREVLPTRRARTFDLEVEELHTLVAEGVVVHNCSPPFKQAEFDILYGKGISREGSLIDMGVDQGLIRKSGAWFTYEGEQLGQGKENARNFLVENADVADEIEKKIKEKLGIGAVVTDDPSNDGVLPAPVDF

[4] = molecular target: T2, Replicative DNA helicase DnaB (Mycobacterium tuberculosis, UniProt P9WMR3); test: DnaB intein splicing inhibitors, dose response, biochemical, cell-free fluorescence (AID 449749); type: functional
T2 sequence (P9WMR3 whole entry): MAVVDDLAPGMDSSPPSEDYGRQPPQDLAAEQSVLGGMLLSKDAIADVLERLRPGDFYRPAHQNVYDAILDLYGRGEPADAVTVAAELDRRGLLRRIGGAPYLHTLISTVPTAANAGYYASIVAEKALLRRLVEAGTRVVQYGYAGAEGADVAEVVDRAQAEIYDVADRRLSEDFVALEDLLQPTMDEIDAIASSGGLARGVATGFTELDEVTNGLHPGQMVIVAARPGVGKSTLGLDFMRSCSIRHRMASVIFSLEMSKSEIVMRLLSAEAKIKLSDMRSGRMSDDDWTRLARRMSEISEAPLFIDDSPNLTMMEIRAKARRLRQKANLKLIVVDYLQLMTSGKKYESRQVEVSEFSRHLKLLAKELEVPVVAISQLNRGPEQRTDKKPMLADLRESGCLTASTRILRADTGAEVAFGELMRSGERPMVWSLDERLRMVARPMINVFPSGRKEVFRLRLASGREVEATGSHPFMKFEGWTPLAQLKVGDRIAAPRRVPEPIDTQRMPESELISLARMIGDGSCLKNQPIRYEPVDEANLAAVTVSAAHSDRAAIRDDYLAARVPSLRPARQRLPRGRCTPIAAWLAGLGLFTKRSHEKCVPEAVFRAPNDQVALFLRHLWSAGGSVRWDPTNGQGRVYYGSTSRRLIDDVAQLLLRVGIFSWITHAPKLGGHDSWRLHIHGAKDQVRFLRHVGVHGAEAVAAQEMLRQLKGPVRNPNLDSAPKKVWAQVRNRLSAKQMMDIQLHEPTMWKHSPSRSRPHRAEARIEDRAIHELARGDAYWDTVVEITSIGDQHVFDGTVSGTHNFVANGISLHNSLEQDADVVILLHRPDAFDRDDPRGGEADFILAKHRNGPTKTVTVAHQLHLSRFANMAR

[5] = molecular target: Genome polyprotein (dengue virus type 2, UniProt P29990); test: Dengue-2 NS5 methyltransferase inhibitors, primary screen, biochemical, confirmation dose response (AID 588689); type: functional
[6] = molecular target: 1-phosphatidylinositol 4,5-bisphosphate phosphodiesterase gamma-1 (Homo sapiens, UniProt P19174); test: Counterscreen for inhibitors of phospholipase C isozymes (PLC-B3): Fluorescence-based biochemical high throughput dose response assay to identify inhibitors of phospholipase C isozymes (PLC-gamma1).
[7] = molecular target: 1-phosphatidylinositol 4,5-bisphosphate phosphodiesterase beta-3 (Homo sapiens, UniProt Q01970); test: Fluorescence-based biochemical high throughput dose response assay to identify inhibitors of phospholipase C isozymes (PLC-B3).
[8] = molecular target: NAD-dependent protein deacylase sirtuin-5, mitochondrial (Homo sapiens, UniProt Q9NXA8); test: SIRT5 deacylase inhibitors, dose response, biochemical, fluorescence imaging, cherry-pick, set 6 (AID 720597)
[9] = A375 melanoma cell viability loss, dose response, counter-screen for MITF inhibitor project, CellTiter-Glo luminescence, dry powder, set 4 (AID 624364); type: functional, cell-based; details: A-375;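 note: A375 melanoma cells are MITF independent so this is a counter screen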
[10] = A375 melanoma cell cytotoxicity, dose response, counter-screen for MITF inhibitor project, CellTiter-Glo luminescence, dry powder, set 2 (AID 624489); type: functional, cell-based; details: A-375;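 note: actives are compounds lowering A375 viability meaning general cytotoxicity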

Sequence of NAD-dependent protein deacylase sirtuin-5, mitochondrial (Q9NXA8 whole entry): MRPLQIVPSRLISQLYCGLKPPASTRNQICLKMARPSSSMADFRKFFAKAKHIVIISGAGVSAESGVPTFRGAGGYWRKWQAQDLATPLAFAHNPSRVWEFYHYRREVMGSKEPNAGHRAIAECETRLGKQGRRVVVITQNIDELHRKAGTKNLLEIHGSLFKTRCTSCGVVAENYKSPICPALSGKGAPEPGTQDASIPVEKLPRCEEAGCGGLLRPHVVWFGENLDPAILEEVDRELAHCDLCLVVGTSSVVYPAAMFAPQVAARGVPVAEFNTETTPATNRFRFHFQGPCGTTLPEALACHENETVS
Sequence of Metabotropic glutamate receptor 3 (P31422 whole entry): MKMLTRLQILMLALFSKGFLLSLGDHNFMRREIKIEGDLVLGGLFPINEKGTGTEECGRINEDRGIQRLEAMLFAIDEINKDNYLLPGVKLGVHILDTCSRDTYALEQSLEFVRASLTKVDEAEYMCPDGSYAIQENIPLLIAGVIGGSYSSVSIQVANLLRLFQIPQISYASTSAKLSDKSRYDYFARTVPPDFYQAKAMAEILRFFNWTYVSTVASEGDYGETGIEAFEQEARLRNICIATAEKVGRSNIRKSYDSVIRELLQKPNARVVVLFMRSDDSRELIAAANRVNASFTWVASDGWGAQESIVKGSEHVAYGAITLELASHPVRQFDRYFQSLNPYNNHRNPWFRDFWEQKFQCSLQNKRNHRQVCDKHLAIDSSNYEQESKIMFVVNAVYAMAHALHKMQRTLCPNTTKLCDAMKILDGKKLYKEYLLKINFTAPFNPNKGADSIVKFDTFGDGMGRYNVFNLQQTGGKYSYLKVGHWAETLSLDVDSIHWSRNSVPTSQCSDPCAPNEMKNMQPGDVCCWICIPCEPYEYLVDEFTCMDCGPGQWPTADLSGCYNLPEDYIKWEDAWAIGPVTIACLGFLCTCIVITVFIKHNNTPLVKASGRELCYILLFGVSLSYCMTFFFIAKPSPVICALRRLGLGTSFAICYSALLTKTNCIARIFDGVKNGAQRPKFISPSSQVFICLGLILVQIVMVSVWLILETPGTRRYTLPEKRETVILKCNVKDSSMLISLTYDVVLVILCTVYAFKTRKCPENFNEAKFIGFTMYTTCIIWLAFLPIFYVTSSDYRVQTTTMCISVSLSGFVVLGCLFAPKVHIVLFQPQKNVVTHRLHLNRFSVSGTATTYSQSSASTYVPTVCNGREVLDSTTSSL
Sequence of Genome polyprotein (P29990 2492-3391 limits assumed): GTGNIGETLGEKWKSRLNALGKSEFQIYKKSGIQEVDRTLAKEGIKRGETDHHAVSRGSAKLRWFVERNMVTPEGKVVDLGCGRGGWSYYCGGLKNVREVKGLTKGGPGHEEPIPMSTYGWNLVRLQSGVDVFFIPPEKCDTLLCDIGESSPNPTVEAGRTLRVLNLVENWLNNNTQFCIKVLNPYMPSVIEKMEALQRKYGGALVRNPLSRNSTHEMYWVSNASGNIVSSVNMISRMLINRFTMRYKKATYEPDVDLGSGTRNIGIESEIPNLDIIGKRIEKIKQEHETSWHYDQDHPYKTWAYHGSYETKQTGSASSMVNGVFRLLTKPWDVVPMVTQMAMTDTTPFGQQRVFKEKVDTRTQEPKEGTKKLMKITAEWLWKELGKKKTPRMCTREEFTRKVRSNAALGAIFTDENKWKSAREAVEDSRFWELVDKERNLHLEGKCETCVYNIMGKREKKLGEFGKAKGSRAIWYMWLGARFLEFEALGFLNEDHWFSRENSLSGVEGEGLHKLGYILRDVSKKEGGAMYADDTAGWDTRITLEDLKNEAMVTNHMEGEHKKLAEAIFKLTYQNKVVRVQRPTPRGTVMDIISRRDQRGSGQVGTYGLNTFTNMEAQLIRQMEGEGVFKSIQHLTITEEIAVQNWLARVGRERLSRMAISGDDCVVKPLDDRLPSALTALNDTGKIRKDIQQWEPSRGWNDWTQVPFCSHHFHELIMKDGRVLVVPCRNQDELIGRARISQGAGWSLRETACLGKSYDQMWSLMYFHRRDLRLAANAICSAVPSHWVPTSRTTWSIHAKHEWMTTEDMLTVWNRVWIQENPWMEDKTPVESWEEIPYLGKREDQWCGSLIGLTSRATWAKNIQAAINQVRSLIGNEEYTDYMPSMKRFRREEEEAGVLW
Sequence of 1-phosphatidylinositol 4,5-bisphosphate phosphodiesterase gamma-1 (P19174 whole entry): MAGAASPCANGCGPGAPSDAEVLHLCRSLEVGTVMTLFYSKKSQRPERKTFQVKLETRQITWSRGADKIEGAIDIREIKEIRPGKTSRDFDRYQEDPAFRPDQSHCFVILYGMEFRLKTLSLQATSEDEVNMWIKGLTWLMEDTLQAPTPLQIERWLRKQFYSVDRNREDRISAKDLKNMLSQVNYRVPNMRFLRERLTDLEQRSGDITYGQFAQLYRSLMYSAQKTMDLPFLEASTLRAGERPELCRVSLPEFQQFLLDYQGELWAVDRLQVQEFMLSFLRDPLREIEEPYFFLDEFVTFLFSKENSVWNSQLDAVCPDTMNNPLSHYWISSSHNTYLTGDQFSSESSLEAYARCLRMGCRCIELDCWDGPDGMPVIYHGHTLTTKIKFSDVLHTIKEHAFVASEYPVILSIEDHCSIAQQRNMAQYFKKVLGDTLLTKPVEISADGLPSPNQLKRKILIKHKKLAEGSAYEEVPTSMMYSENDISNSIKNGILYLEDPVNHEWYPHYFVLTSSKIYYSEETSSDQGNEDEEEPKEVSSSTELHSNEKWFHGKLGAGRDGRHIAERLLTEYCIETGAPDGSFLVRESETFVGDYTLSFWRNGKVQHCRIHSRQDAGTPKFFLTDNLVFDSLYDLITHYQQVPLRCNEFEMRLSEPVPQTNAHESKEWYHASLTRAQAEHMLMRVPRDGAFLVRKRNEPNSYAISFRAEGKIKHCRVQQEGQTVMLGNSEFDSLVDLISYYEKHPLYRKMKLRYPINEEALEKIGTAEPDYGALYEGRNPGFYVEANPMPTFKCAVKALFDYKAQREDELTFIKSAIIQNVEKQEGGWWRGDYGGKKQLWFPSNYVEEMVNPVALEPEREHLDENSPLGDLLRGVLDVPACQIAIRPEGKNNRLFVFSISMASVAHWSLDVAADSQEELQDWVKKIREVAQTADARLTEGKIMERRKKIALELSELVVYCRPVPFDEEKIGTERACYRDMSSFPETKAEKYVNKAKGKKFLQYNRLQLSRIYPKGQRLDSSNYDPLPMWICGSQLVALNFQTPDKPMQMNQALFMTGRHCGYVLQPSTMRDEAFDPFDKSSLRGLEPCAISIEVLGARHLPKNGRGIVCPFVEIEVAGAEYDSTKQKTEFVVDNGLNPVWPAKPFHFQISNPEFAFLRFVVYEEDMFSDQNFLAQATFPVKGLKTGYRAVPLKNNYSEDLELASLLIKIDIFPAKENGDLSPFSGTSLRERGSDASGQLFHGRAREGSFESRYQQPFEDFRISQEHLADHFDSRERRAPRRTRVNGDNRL
Sequence of 1-phosphatidylinositol 4,5-bisphosphate phosphodiesterase beta-3 (Q01970 whole entry): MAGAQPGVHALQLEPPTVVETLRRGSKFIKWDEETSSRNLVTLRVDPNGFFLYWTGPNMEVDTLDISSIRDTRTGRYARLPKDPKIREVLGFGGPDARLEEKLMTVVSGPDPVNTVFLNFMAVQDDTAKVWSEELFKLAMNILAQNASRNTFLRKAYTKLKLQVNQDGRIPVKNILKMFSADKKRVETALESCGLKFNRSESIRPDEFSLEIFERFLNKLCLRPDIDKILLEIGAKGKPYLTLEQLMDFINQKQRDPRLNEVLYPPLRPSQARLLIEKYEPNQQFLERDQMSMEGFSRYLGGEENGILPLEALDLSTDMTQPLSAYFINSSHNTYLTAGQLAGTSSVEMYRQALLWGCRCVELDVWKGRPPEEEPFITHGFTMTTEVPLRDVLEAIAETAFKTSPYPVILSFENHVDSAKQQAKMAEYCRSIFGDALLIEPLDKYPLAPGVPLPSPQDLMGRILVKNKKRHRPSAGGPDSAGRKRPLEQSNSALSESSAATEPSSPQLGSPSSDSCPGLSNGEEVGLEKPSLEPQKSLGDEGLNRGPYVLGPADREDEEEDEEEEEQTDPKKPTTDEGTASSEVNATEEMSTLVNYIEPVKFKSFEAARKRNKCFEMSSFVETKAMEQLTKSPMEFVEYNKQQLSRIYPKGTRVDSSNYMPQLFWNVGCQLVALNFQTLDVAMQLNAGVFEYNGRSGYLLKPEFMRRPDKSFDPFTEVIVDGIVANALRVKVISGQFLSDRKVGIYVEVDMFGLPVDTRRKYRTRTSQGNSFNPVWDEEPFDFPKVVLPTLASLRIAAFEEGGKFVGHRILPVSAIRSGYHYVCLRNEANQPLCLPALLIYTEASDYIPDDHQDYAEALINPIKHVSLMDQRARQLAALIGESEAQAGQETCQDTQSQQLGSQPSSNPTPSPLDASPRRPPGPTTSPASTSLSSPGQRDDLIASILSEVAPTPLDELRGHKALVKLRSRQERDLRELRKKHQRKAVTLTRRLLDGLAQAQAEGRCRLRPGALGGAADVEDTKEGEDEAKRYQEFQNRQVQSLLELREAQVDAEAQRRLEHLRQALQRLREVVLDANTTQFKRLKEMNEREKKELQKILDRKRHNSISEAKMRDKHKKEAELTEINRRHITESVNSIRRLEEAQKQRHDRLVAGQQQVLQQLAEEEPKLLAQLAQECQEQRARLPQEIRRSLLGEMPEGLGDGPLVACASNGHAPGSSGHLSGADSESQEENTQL
Sequence of Tyrosyl-DNA phosphodiesterase 2 (O95551 whole entry): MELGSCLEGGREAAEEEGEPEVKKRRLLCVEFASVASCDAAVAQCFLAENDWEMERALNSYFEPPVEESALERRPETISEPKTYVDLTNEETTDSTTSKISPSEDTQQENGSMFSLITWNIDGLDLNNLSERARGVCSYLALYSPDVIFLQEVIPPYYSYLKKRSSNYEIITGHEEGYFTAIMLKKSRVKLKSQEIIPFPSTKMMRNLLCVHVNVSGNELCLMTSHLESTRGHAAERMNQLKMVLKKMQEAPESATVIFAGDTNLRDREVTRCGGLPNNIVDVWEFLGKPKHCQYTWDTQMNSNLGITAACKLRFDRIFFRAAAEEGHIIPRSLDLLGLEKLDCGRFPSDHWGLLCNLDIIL

COc1ccc(C#Cc2ccc(C(=O)N3CCCC(OC)C3)cc2)cc1 (centres undefined)
IC50 [1]: 7.15 µM (active)

COc1ccc(C(c2c(C)[nH]n(-c3ccccc3)c2=O)c2c(C)[nH]n(-c3ccccc3)c2=O)cc1OC
IC50 [2]: 95.2 µM (inactive) | EC50 [3]: 0.688 µM (active) | AC50 [4]: 1.22 µM (active) | IC50 [5]: 35.9 µM (active)

Cc1ccc(OCCn2c(CCNC(=O)C3CCCCCC3)nc3ccccc32)cc1
IC50 [6]: > 123 µM (inactive) | IC50 [7]: > 123 µM (inactive)

C[C@H]1CN([C@@H](C)CO)C(=O)c2cccc(NC(=O)NC3CCCCC3)c2O[C@@H]1CN(C)Cc1ccc(C(=O)O)cc1
AC50 [8]: 22.8 µM (active)

C[C@@H]1CN([C@@H](C)CO)C(=O)c2cc(NS(=O)(=O)c3ccccc3)ccc2O[C@@H]1CN(C)CC1CCCCC1
AC50 [8]: > 30 µM (inactive)

O=C(c1ccc2cc(-c3cccc(OCc4ccccc4)c3)ccc2c1)N1CCCC(CO)C1 (centres undefined)
IC50 [1]: 1.08 µM (inactive)

O=C1C(Nc2ccccc2)=C(NS(=O)(=O)c2ccccc2[N+](=O)[O-])C(=O)c2ccccc21
AC50 [9]: > 70 µM (inactive) | AC50 [10]: > 70 µM (inactive)

COc1ccc(C2=C(NC(=O)c3ccc(Cl)cc3)C(=O)c3ccccc3C2=O)cc1
AC50 [9]: 35.3 µM (active) | AC50 [10]: 18.2 µM (active)
